Source: patent publication US20180362993A1, “ELICITOR-DERIVED PEPTIDES AND USE THEREOF” (Plant Health Care, Inc., priority 2017, published 2018)
Marks after values point to notes of the source that are not given here.

Experiments:
soy = experiment: Drought resistance in seed-treated soy; format: in vivo; settings: for % Change Dry Weight / % Change Fresh Weight: vs mock; for Result in the seed treated drought study for soy, in words: soy seed treatment
Method: The effectiveness of peptide treatment in reducing drought stress was assessed in soy using a seed treatment strategy. This strategy largely mirrors examples 3 and 4.
Seeds were first sieved using mesh screens to a uniform size (14-17 mesh). The seeds were then coated with a mixture of peptide and Unicoat™ seed coat polymer in a Hege 11 Liquid Seed Treater (Wintersteiger) according to manufacturer recommendations. […]
(§1) 3.5 inch pots were filled (approximately 0.2 L per pot) with Sunshine #1 mix (SunGro Horticulture), fertilized with 14-14-14 N,P,K Osmocote (Everris), and mixed for 20 minutes using a soil mixer M-5. Seeds were planted at a depth of 0.5 inch for germination. The pots were immediately irrigated by submergence then drained after about an hour. For each treatment group, 24 replicate seeds were planted. Plants were grown in a greenhouse under 16 hour light days at ˜75° F. and 8 hour dark nights at ˜65° F. Prior to drought conditions, the plants were well-watered.
(§2) Seven days after germination the heights of the plants were measured. This was determined as the distance between the soil surface and the shoot apical meristems (buds). The plants were randomized using a complete block design and subjected to a cyclic drought stress. Drought stress was imposed by withholding water for 3-4 days until the majority of plants were under medium to severe water stress. The severity of the stress was determined by the weight of the pot and visual determination of loss of turgor in the leaves (drooping). Once drought stress was attained, the pots were watered to full saturation. Full Saturation (100% pot capacity) is defined as the weight of the pot filled with water-saturated soil minus the weight of the filled pot prior to adding water. Drought stress was imposed for a total of 18 days.
At the end of the experiment (18 days after initiation of drought stress), the plant above the soil surface was then harvested for fresh and dry weights. Individual plants were cut near the soil surface and weighed immediately (fresh weight). The plants were then placed into labeled brown paper bags and dried in a 70° C. oven for 72 hours. A dry weight was then obtained. The following calculation was performed on the collected data: Fresh weight at harvest, and dry weight at harvest for the peptide-treated plants were expressed as a % change relative to the ‘mock’ treated plants.

corn = experiment: Drought resistance in seed-coated corn; format: in vivo; settings: for % Change Dry Weight / % Change Fresh Weight: vs mock
Method: The effectiveness of peptide treatment in reducing the effects of drought stress was assessed in corn using a seed treatment strategy. This strategy largely mirrors example 2, except that the seeds were coated with a peptide formulation rather than a foliar spray application.
Seeds were first sieved using mesh screens to a uniform size (21-23/64 inches). The seeds were then coated with a mixture of peptide, Unicoat™ seed coat polymer, and a minimal volume of water in a Hege 11 Liquid Seed Treater (Wintersteiger) according to manufacturer recommendations. Seeds were coated with one of the following: (i) 0.12 μg peptide/seed, (ii) […], or (iii) a ‘mock’ treatment that included no peptide. The amount of peptide per seed assumes complete transfer of the peptide to seed surfaces in the seed coating chamber. Losses during coating were not considered.
as §1
as §2, with “Three” for “Seven”, “planting,” for “germination”, “the” for “the heights of the plants were measured. This was determined as the distance between the soil surface and the shoot apical meristems (buds). The”, “2-3” for “3-4”, “leaf curling.” for “loss of turgor in the leaves (drooping).”
At the end of the experiment (18 days after initiation of drought stress), the plant was then harvested for fresh and dry weights. Individual plants were cut near the soil surface and weighed immediately (fresh weight). The plants were then placed into labeled brown paper bags and dried in a 70° C. oven for 72 hours. A dry weight was then obtained.
The following calculation was performed on the collected data: Fresh weight at harvest and dry weight at harvest for the plants grown from peptide-treated seeds were expressed as a % change relative to the ‘mock’ treated plants.

[1] = corn seed treatment 0.12 μg/seed
[2] = corn seed treatment 1.05 μg/seed

Substance: AGQTSGLSPLEQLLKIFADITQSLFG (P13-23 peptide) [Peptide P13-23]
- % Change Dry Weight (soy; soy seed treatment 0.1 μg/seed): 6.43%
- % Change Fresh Weight (soy; soy seed treatment 0.1 μg/seed): 5.08%
- Drought tolerance activity in corn, result in words (corn; corn seed treatment): affords activity
- % Change Dry Weight (corn; [1]): 0.94%
- % Change Fresh Weight (corn; [1]): 4.89** %
- % Change Dry Weight (corn; [2]): 2.16%
- % Change Fresh Weight (corn; [2]): 5.54** %

Substance: AGQTSGMSPLEQLMKIFADITQSLFGDQDG (P13-40 peptide) [Peptide P13-40]
- Result in the seed treated drought study for soy, in words (soy): significant results
- % Change Dry Weight (soy; soy seed treatment 0.1 μg/seed): 10.27** %
- % Change Fresh Weight (soy; soy seed treatment 0.1 μg/seed): 12.53** %
- % Change Dry Weight (corn; [2]): 0.76%
- % Change Fresh Weight (corn; [2]): 5.86* %

Substance: AGQTSGMSPMEELMKIFADITQSLFGDQDG (P13-45 peptide) [Peptide P13-45]
- % Change Dry Weight (soy; soy seed treatment 0.9 μg/seed): 3.17%
- % Change Fresh Weight (soy; soy seed treatment 0.9 μg/seed): 3.6%
- % Change Dry Weight (corn; [1]): 6.05* %
- % Change Fresh Weight (corn; [1]): 8.54** %

Substance: AGQTSGMSPMEQLLKIFADITQSLFGDQDG (P13-39 peptide) [Peptide P13-39]
- % Change Dry Weight (soy; soy seed treatment 0.1 μg/seed): 3.26%
- % Change Fresh Weight (soy; soy seed treatment 0.1 μg/seed): 3.22%
- % Change Dry Weight (corn; [2]): 3.10%
- % Change Fresh Weight (corn; [2]): 5.09** %

Substance: AGQTSGMSPMEQLMEIFADITQSLFGDQDGK (P13-22 peptide) [Peptide P13-22]
- % Change Dry Weight (soy; soy seed treatment 0.1 μg/seed): 4.36%
- % Change Fresh Weight (soy; soy seed treatment 0.1 μg/seed): 4.91%
- % Change Dry Weight (corn; [2]): 1.66%
- % Change Fresh Weight (corn; [2]): 3.41%

Substance: AGQTSGMSPMEQLMEIFADITQSLFGDQDGR (P13-20 peptide) [Peptide P13-20]
- % Change Dry Weight (soy; soy seed treatment 0.1 μg/seed): −5.02%
- % Change Fresh Weight (soy; soy seed treatment 0.1 μg/seed): −5.86** %
- Drought tolerance activity in corn, result in words (corn; corn seed treatment): affords activity
- % Change Dry Weight (corn; [2]): 3.23%
- % Change Fresh Weight (corn; [2]): 6.87** %

Substance: AGQTSGMSPMEQLMEIFADITQSLFGDQDR (P13-56 peptide) [Peptide P13-56]
- % Change Dry Weight (corn; [1]): 0.44%
- % Change Fresh Weight (corn; [1]): 1.91%

Substance: AGQTSGMSPMEQLMEIFADITQSLFGDQR (P13-57 peptide) [Peptide P13-57]
- % Change Dry Weight (corn; [2]): −0.68%
- % Change Fresh Weight (corn; [2]): 1.90%

Substance: AGQTSGMSPMEQLMEIFADITQSLFGDR (P13-58 peptide) [Peptide P13-58]
- % Change Dry Weight (corn; [1]): 2.83%
- % Change Fresh Weight (corn; [1]): −4.07%

Substance: AGQTSGMSPMEQLMKIEADITQSLFGDQDG (P13-52 peptide) [Peptide P13-52]
- Result for dry weight, in words (corn; corn seed treatment): positive
- % Change Dry Weight (corn; [2]): 4.49** %
- % Change Fresh Weight (corn; [2]): −5.08* %

Substance: AGQTSGMSPMEQLMKIFADITESLFGDQDG (P13-43 peptide) [Peptide P13-43]
- % Change Dry Weight (soy; soy seed treatment 0.1 μg/seed): 2.37%
- % Change Fresh Weight (soy; soy seed treatment 0.1 μg/seed): 1.96%
- % Change Dry Weight (corn; [1]): −0.75%
- % Change Fresh Weight (corn; [1]): 6.2* %
- % Change Dry Weight (corn; [2]): 6.73** %
- % Change Fresh Weight (corn; [2]): 5.04%

Substance: AGQTSGMSPMEQLMKIFADITQSLFGDEDG (P13-44 peptide) [Peptide P13-44]
- Result in the seed treated drought study for soy, in words (soy): significant results
- % Change Dry Weight (soy; soy seed treatment 0.1 μg/seed): 10.93** %
- % Change Fresh Weight (soy; soy seed treatment 0.1 μg/seed): 10.54** %
- % Change Dry Weight (corn; [1]): 2.73%
- % Change Fresh Weight (corn; [1]): 7.76** %
- % Change Dry Weight (corn; [2]): 3.44%
- % Change Fresh Weight (corn; [2]): 9.15** %

Substance: AGQTSGMSPMEQLMKIFADITQSLFGDQ (P13-17 peptide) [Peptide P13-17]
- Result in the seed treated drought study for soy, in words (soy): significant results
- % Change Dry Weight (soy; soy seed treatment 0.1 μg/seed): 9.48** %
- % Change Fresh Weight (soy; soy seed treatment 0.1 μg/seed): 8.02* %
- % Change Dry Weight (corn; [2]): 1.09%
- % Change Fresh Weight (corn; [2]): 1.51%

Substance: AGQTSGMSPMEQLMKILADITQSLLGDQDG (P13-33 peptide) [Peptide P13-33]
- Drought tolerance activity in corn, result in words (corn; corn seed treatment): negative
- % Change Dry Weight (corn; [2]): 2.59%
- % Change Fresh Weight (corn; [2]): −1.28%

Substance: AGQTSGMSPMEQLMKLFADLTQSLFGDQDG (P13-30 peptide) [Peptide P13-30]
- Result in the seed treated drought study for soy, in words (soy): significant results
- % Change Dry Weight (soy; soy seed treatment 0.9 μg/seed): 6.17%
- % Change Fresh Weight (soy; soy seed treatment 0.9 μg/seed): 9.41* %
- Drought tolerance activity in corn, result in words (corn; corn seed treatment): positive
- % Change Dry Weight (corn; [1]): 3.01%
- % Change Fresh Weight (corn; [1]): 6.19* %
- % Change Dry Weight (corn; [2]): 2.73%
- % Change Fresh Weight (corn; [2]): 8.68** %

Substance: LEELEELLEIFEEIEEELF (P13-35 peptide) [Peptide P13-35]
- % Change Dry Weight (soy; soy seed treatment 0.1 μg/seed): 2.56%
- % Change Fresh Weight (soy; soy seed treatment 0.1 μg/seed): 1.55%
- Drought tolerance activity in corn, result in words (corn; corn seed treatment): preservation of activity
- % Change Dry Weight (corn; [1]): 5.68** %
- % Change Fresh Weight (corn; [1]): 2.45%

Substance: MEEMEQLMKIFEEIEQELFEEEE (P13-37 peptide) [Peptide P13-37]
- % Change Dry Weight (soy; soy seed treatment 0.9 μg/seed): 0.48%
- % Change Fresh Weight (soy; soy seed treatment 0.9 μg/seed): 0.58%
- Drought tolerance activity in corn, result in words (corn; corn seed treatment): preservation of activity
- % Change Dry Weight (corn; [2]): 5.53** %
- % Change Fresh Weight (corn; [2]): 7.67** %

Substance: P13-47: P13 peptide variant tested in corn seed treatment, SEQ ID NO: 69; sequence not printed in the text (AGQTSGESPMEQLMKIFADITQSLFGDQDG; P13-47 peptide) [Peptide P13-47]
- % Change Dry Weight (corn; [2]): −1.34%
- % Change Fresh Weight (corn; [2]): −3.42%

Substance: P13-48: P13 peptide variant tested in corn seed treatment, SEQ ID NO: 70; sequence not printed in the text (AGQTSGMSPEEQLMKIFADITQSLFGDQDG; P13-48 peptide) [Peptide P13-48]
- % Change Dry Weight (corn; [2]): −1.83%
- % Change Fresh Weight (corn; [2]): −1.65%

Substance: P13-49: P13 peptide variant tested in corn seed treatment, SEQ ID NO: 71; sequence not printed in the text (AGQTSGMSPMEQEMKIFADITQSLFGDQDG; P13-49 peptide) [Peptide P13-49]
- % Change Dry Weight (corn; [1]): 0.79%
- % Change Fresh Weight (corn; [1]): −4.24%

Substance: P13-50: P13 peptide variant tested in corn seed treatment, SEQ ID NO: 72; sequence not printed in the text (AGQTSGMSPMEQLEKIFADITQSLFGDQDG; P13-50 peptide) [Peptide P13-50]
- % Change Dry Weight (corn; [1]): 0.49%
- % Change Fresh Weight (corn; [1]): −3.95%

Substance: P13-51: P13 peptide variant tested in corn seed treatment, SEQ ID NO: 73; sequence not printed in the text (AGQTSGMSPMEQLMKEFADITQSLFGDQDG; P13-51 peptide) [Peptide P13-51]
- % Change Dry Weight (corn; [2]): 0.64%
- % Change Fresh Weight (corn; [2]): −4.70%

Substance: P13-53: P13 peptide variant tested in corn seed treatment, SEQ ID NO: 75; sequence not printed in the text (AGQTSGMSPMEQLMKIFADETQSLFGDQDG; P13-53 peptide) [Peptide P13-53]
- % Change Dry Weight (corn; [1]): 0.48%
- % Change Fresh Weight (corn; [1]): −2.19%

Substance: P13-54: P13 peptide variant tested in corn seed treatment, SEQ ID NO: 76; sequence not printed in the text (AGQTSGMSPMEQLMKIFADITQSEFGDQDG; P13-54 peptide) [Peptide P13-54]
- % Change Dry Weight (corn; [1]): −1.38%
- % Change Fresh Weight (corn; [1]): −4.51* %

Substance: P13-55: P13 peptide variant tested in corn seed treatment, SEQ ID NO: 77; sequence not printed in the text (AGQTSGMSPMEQLMKIFADITQSLEGDQDG; P13-55 peptide) [Peptide P13-55]
- % Change Dry Weight (corn; [1]): 0.81%
- % Change Fresh Weight (corn; [1]): −3.84%

Substance: SQTSGMSPMEQLMEIFADITQSLF (P13-25 peptide) [Peptide P13-25]
- % Change Dry Weight (corn; [2]): 3.01%
- % Change Fresh Weight (corn; [2]): 2.63%
